“Also recorded” adds a separate entry of the source. Read-outs that look alike come from different tables or passages of the source.
What was measured:
NSCLC tumors = settings: after failure of chemotherapy, cited from earlier work
chemo-refractory NSCLC = settings: phase II, monotherapy, 57 evaluable patients; cited from earlier work
NSCLC = settings: cited from earlier work
[1] = test system: locally advanced or metastatic pancreatic cancer; settings: cited from earlier work
HCC827 cells [2] = assay: CellTiter 96 Aqueous Cell Proliferation Assay (MTS), Example 2; format: cell-based; settings: in combination with BA (100 μM and 50 μM), 72 hours
HCC827 cells [3] = assay: Viable cell count / growth of HCC827 cells, Example 1; format: cell-based
Method: Lung adenocarcinoma HCC827 cells are cultured in Dulbecco Modified Eagle Medium with 10% fetal bovine serum. […] Cells are plated at a seeding density 10^5 per P100 or at 10^4 per P60 in growth media and incubated 12-18 h at 37° C., 5% CO2. BA and the EGFR inhibitor, IRESSA, are added as a single dose for 72 hours. DMSO is used as a control. Cells are irradiated with 3Gy and 5Gy gamma-irradiation using γ-Irradiator Gammacell 40 Exactor (MDS Nordion, Canada). Following treatment, cells are analyzed with BrdU ELISA assay (Roche Applied Science), FACS based cell cycle assay or TUNEL.
After the addition of drugs, irradiation and incubation, cells are taken for counting and PI (Propidium Iodide) exclusion assay. One part of the cells is centrifuged and resuspended in 0.5 ml ice-cold PBS containing 5 μg/ml of PI. The other part of the cells is fixed in ice-cold 70% ethanol and stored in a freezer overnight. For cell cycle analysis, cells are stained with propidium iodide (PI) as described hereinabove. Cellular DNA content is determined by flow cytometry using BD LSRII FACS, and the percentages of cells in G1, S or G2/M are determined using ModFit software.

[4] = test system: HCC827 non-small cell lung carcinoma cells; assay: Number of vital (proliferating) cells relative to control, Example 1A; format: cell-based; settings: for Live Cell: HCC827 (NSCLC), GFT 0 nM, 72 hours, percentage relative to control
Method: (§1) HCC827 non-small cell lung carcinoma cells were obtained from ATCC, Rockville, Md. […] Central dose rate of approximately 1.30 Gy/minute (130 rad/minute).
Following treatment, the number of vital cells was measured. Percentage of the vital (proliferating) cells under different treatments was calculated relative to the control (untreated) cells.
(§2) After the addition of the compounds as described above, irradiation and incubation, cells were trypsinized and aliquots of the samples were taken for counting and PI (Propidium Iodide) exclusion assay. One part of the cells was centrifuged and resuspended in 0.5 ml ice-cold PBS containing 5 ug/ml of PI. The other part of the cells was fixed in ice-cold 70% ethanol and stored in a freezer overnight. For cell cycle analysis, cells were stained with propidium iodide (PI) by standard procedures. Cellular DNA content was determined by flow cytometry using BD LSRII FACS, and the percentages of cells in G1, S or G2/M were determined using ModFit software.

HCC827 cells [5] = assay: TUNEL apoptosis assay (FACS), Example 1; format: cell-based; settings: GFT 0 nM, 72 hours
Method: Lung adenocarcinoma HCC827 cells are cultured in Dulbecco Modified Eagle Medium with 10% fetal bovine serum. […] Cells are plated at a seeding density 10^5 per P100 or at 10^4 per P60 in growth media and incubated 12-18 h at 37° C., 5% CO2. BA and the EGFR inhibitor, IRESSA, are added as a single dose for 72 hours. DMSO is used as a control. […] Following treatment, cells are analyzed with BrdU ELISA assay (Roche Applied Science), FACS based cell cycle assay or TUNEL.
To detect apoptosis, the cells are labeled with the “In Situ Cell Death Detection Kit, Fluorescein” (Roche Diagnostics Corporation, Roche Applied Science, Indianapolis, Ind.). Briefly, fixed cells are centrifuged and washed once in phosphate-buffered saline (PBS) containing 1% bovine serum albumin (BSA), then resuspended in 2 ml permeabilization buffer (0.1% Triton X-100 and 0.1% sodium citrate in PBS) for 25 min at room temperature and washed twice in 0.2 ml PBS/1% BSA. The cells are resuspended in 50 μl TUNEL reaction mixture (TdT enzyme and labeling solution) and incubated for 60 min at 37° C. in a humidified dark atmosphere in an incubator. The labeled cells are washed once in PBS/1% BSA, then resuspended in 0.5 ml ice-cold PBS containing 1 μg/ml 4′,6-diamidino-2-phenylindole (DAPI) for at least 30 min. All cell samples are analyzed with a BD LSR II (BD Biosciences, San Jose, Calif.). […]

[6] = test system: HCC827 non-small cell lung carcinoma cells; assay: TUNEL apoptosis detection (FACS), Example 1A; format: cell-based; settings: for TUNEL (+): HCC827 (NSCLC), GFT 0 nM, 72 hours
From the text: as §1
The cells were labeled for apoptosis detection with the “In Situ Cell Death Detection Kit, Fluorescein” (Roche Diagnostics Corporation, Roche Applied Science, Indianapolis, Ind.) and analyzed based on the modified protocol from Dr. Darzynkiewicz laboratory. Briefly, fixed cells were centrifuged and washed once in phosphate-buffered saline (PBS) containing 1% bovine serum albumin (BSA), then resuspended in 2 ml permeabilization buffer (0.1% Triton X-100 and 0.1% sodium citrate in PBS) for 25 min at room temperature and washed twice in 0.2 ml PBS/1% BSA. The cells were resuspended in 50 μl TUNEL reaction mixture (TdT enzyme and labeling solution) and incubated for 60 min at 37° C. in a humidified dark atmosphere in an incubator. The labeled cells were washed once in PBS/1% BSA, then resuspended in 0.5 ml ice-cold PBS containing 1 μg/ml 4′,6-diamidino-2-phenylindole (DAPI) for at least 30 min. All cell samples were analyzed with a BD LSR II (BD Biosciences, San Jose, Calif.) and the final percentages of the cell cycle distribution were normalized to singlets viable cell population, excluding cell debris and polyploid cells according established procedure. All flow cytometry analyses were carried out using triplicate samples containing at least 30,000 cells each (typical results of 3 or more independent experiments are shown).

[7] = in vivo; cited from earlier work
[8] = test system: HCC827 non-small cell lung carcinoma cells; assay: FACS cell cycle analysis by DNA content and BrdU incorporation, Example 1A; format: cell-based; design: key to Sub-G1 / G1: % of cells in cell cycle phase; settings: for BrdU (−) S / G1 / G2/M / S / Sub-G1: HCC827 (NSCLC), GFT 0 nM, 72 hours
Method: as §1, §2
All cell samples were analyzed as described in [5,6] using a BD LSR II or BD Aria (BD Biosciences, San Jose, Calif.). All flow cytometry analyses were carried out using triplicate samples containing at least 30,000 cells each and the final percentages of the cell cycle distribution were normalized to singlets viable cell population, excluding cell debris and polyploid cells according established procedure.
50 μl of BrdU (Sigma Chemical Co., St. Louis, Mo.) stock solution (1 mM) was added to achieve final concentration of 10 μM BrdU. Then cells were incubated for 30 min at 37° C. and fixed in ice-cold 70% ethanol and stored at 4° C. overnight. Fixed cells were centrifuged and washed once in 2 ml PBS, then resuspended in 0.7 ml of denaturation solution (0.2 mg/ml pepsin in 2 N HCl) for 15 min at 37° C. in the dark, then 1.04 ml 1M Tris buffer (Trizma base, Sigma Chemical Co.) was added to terminate the hydrolysis. Cells were washed in 2 ml PBS and resuspended in 100-μ1(1:100 dilution) of anti-BrdU antibody (DakoCytomation, Carpinteria, Calif.) in TBFP permeable buffer (0.5% Tween-20, 1% bovine serum albumin and 1% fetal bovine serum in PBS), incubated for 25 min at room temperature in the dark and washed in 2 ml PBS. The primary antibody-labeled cells were resuspended in 100 μl ALEXA FLUOR® F(ab)2, fragment of goat anti-mouse IgG (H+L) (1:200 dilution, 2 mg/mL, Molecular Probes, Eugene, Oreg.) in TBFP buffer and incubated for 25 min at room temperature in the dark and washed in 2 ml PBS, then resuspended in 0.5 ml ice-cold PBS containing 1 μg/ml 4′,6-diamidino-2-phenylindole (DAPI) for at least 30 min [3, 6].

HCC827 cells [9] = assay: FACS-based cell cycle analysis (PI/BrdU), Example 1; settings: GFT 0 nM, 72 hours; for G1 / G2/M / S: percentage of cells
Method: 50 μl of BrdU (Sigma Chemical Co., St. Louis, Mo.) stock solution (1 mM) is added to achieve final concentration of 10 μM BrdU. Then cells are incubated for 30 min at 37° C. and fixed in ice-cold 70% ethanol and stored at 4° C. overnight. Fixed cells are centrifuged and washed once in 2 ml PBS, then resuspended in 0.7 ml of denaturation solution (0.2 mg/ml pepsin in 2 N HCl) for 15 min at 37° C. in the dark, then 1.04 ml 1M Tris buffer (Trizma base, Sigma Chemical Co.) is added to terminate the hydrolysis. Cells are washed in 2 ml PBS and resuspended in 100-μl (1:100 dilution) of anti-BrdU antibody (DakoCytomation, Carpinteria, Calif.) in TBFP permeable buffer (0.5% Tween-20, 1% bovine serum albumin and 1% fetal bovine serum in PBS), incubated for 25 min at room temperature in the dark and washed in 2 ml PBS. The primary antibody-labeled cells are resuspended in 100 μl ALEXA FLUOR® F(ab′)2 fragment of goat anti-mouse IgG (H+L) (1:200 dilution, 2 mg/mL, Molecular Probes, Eugene, Oreg.) in TBFP buffer and incubated for 25 min at room temperature in the dark and washed in 2 ml PBS, then resuspended in 0.5 ml ice-cold PBS containing 1 μg/ml 4′,6-diamidino-2-phenylindole (DAPI) for at least 30 min. All cell samples are analyzed with a BD LSR II (BD Biosciences, San Jose, Calif.). All flow cytometry analyses are carried out using triplicate samples containing at least 30,000 cells each (typical results of independent experiments are shown).

VEGF = settings: human, in vivo; cited from earlier work
[10] = Caucasian patients with NSCLC tumors
[11] = phase III versus placebo, NSCLC after failed prior chemotherapy
[12] = combination treatment arm (TARCEVA with gemcitabine)
[13] = Homo sapiens, HCC827, 72 h, read-out: Viable Cell
[14] = gefitinib-treated HCC827 cells, FIG. 2c

Sequence of VEGF (P15692 207-311 limits assumed): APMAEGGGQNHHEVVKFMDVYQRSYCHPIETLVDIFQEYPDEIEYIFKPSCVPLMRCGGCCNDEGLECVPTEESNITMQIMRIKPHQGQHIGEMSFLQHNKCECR

In the case of `C#Cc1cccc(Nc2ncnc3cc(OCCOC)c(OCCOC)cc23)c1` [TARCEVA, erlotinib], the major objective responses (NSCLC tumors; [10]) is given as “approximately 10%”, the “patients achieving disease stabilisation” value (chemo-refractory NSCLC) is given as 51% and the “patients surviving for at least 12 months” value (chemo-refractory NSCLC) is given as 40%. The “patients affected by rash” value (NSCLC; NSCLC primary registration trial) was 75%, the tolerability (NSCLC; clinical trials) was “generally well tolerated” and the “improvement in median survival” value (NSCLC; [11]) was 42%. For the same molecule, the “improvement in one-year survival” value (NSCLC; [11]) was 45%, the Median survival [1, 12] was 6.4 months and the one-year survival [1, 12] was 25.6%. The “improvement in overall survival” value ([1]; in combination with gemcitabine, compared with gemcitabine alone) was 23.5%.
In the case of `COC(=O)[C@@]1(O)C[C@H]2O[C@]1(C)n1c3ccccc3c3c4c(c5c6ccccc6n2c5c31)C(=O)NC4` [K252a, (9S-(9α,10β,12α))-2,3,9,10,11,12-hexahydro-10-hydroxy-10-(methoxycarbonyl)-9-methyl-9,12-epoxy-1H-diindolo[1,2,3-fg:3′,2′,1′-kl]pyrrolo[3,4-i][1,6]benzodiazocin-1-one], the “effect of BA on antiproliferative effects of growth factor receptors inhibitors” value (HCC827 cells [2]) was “potentiation of antiproliferative effects”.
In the case of `Nc1ccn([C@@H]2O[C@H](CO)[C@@H](O)C2(F)F)c(=O)n1` [gemcitabine], the Median survival ([1]; gemcitabine plus placebo) is listed as 5.9 months and the one-year survival ([1]; gemcitabine plus placebo) is listed as 19.7%.
For `COc1cc2ncnc(Nc3ccc(F)c(Cl)c3)c2cc1OCCCN1CCOCC1` [GFT, gefitinib], the major objective responses (NSCLC tumors; [10]) is listed as “approximately 10%” and the major objective responses (NSCLC tumors; Japanese patients with NSCLC tumors) is listed as 25-30%.
For `NC(=O)c1ccc(I)c([N+](=O)[O-])c1` [BA, 4-iodo-3-nitrobenzamide], the “effect of BA on the activity of gefitinib (IRESSA)” value (HCC827 cells [3]; HCC827 cell line, FIG. 1) was “potentiates the activity of gefitinib; also recorded: potentiates the activity of the EGFR inhibitor, IRESSA”, the viability at 50 µM (HCC827 cells [3]; [13]) was 65% and the viability at 100 µM (HCC827 cells [3]; [13]) was 25%. For the same molecule, the “Live Cell” value ([4]; BA 50 uM) was 65, the “Live Cell” value ([4]; BA 100 uM) was 25 and the “effect of BA on antiproliferative effect of growth factor inhibitors” value ([4]; HCC827 cells, FIG. 2a-2c) was “potentiates antiproliferative effect of growth factor inhibitors”. The “effect of BA on antitumor activity of gefitinib” value ([4]; non-small lung carcinoma cells) was “potentiates antitumor activity of gefitinib”, the “TUNEL (+)” value (HCC827 cells [5]; BA 50 uM) was 5.7 and the “TUNEL (+)” value (HCC827 cells [5]; BA 100 uM) was 32.8. The “TUNEL (+)” value ([6]; BA 50 uM) was 5.7, the “TUNEL (+)” value ([6]; BA 100 uM) was 32.8 and the apoptosis ([6]; gefitinib treated HCC827 cells) was “induced apoptosis”. The “crossing of the blood-brain barrier” value [7] was “known to cross the blood-brain barrier”, the distribution into tissues [7] was “distributes rapidly and widely into tissues, including the brain and cerebrospinal fluid (CSF)” and the “BrdU (−) S” value ([8]; BA 50 uM) was 1.95. The G1 ([8]; BA 50 uM) was 46.26, the G2/M ([8]; BA 50 uM) was 8.82 and the S ([8]; BA 50 uM) was 40.62. The Sub-G1 ([8]; BA 50 uM) was 2.36, the “BrdU (−) S” value ([8]; BA 100 uM) was 8.05 and the G1 ([8]; BA 100 uM) was 43.76. The G2/M ([8]; BA 100 uM) was 12.49, the S ([8]; BA 100 uM) was 19.92 and the Sub-G1 ([8]; BA 100 uM) was 15.79. The cell cycle arrest ([8]; gefitinib treated HCC827 cells) was “enhanced cell cycle arrest”, the “number of cells in G1 and S phases of cell cycle” value [8, 14] was “reduced number of cells in G1 and S phases” and the “number of dead cells (sub-G1)” value [8, 14] was “induced number of dead cells (sub-G1)”. The Sub-G1 (HCC827 cells [9]; BA 50 uM) was 2.4, the G1 (HCC827 cells [9]; BA 50 uM) was 46.3 and the G2/M (HCC827 cells [9]; BA 50 uM) was 8.8. For the same molecule, the S (HCC827 cells [9]; BA 50 uM) was 40.6, the Sub-G1 (HCC827 cells [9]; BA 100 uM) was 15.8 and the G1 (HCC827 cells [9]; BA 100 uM) was 43.8. It also gave a G2/M (HCC827 cells [9]; BA 100 uM) of 12.5 and an S (HCC827 cells [9]; BA 100 uM) of 19.9.
For “bevacizumab: first anti-VEGF drug, a monoclonal antibody”, the “patients who benefit from therapy” value (VEGF) is given as 10-15%.
With `NC(=O)c1ccc(I)c(N=O)c1` [BNO, 4-iodo-3-nitrosobenzamide] the “Live Cell” value ([4]; BNO 25 uM) was 76, the “Live Cell” value ([4]; BNO 50 uM) was 40 and the “TUNEL (+)” value ([6]; BNO 25 uM) was 2.9. The “TUNEL (+)” value ([6]; BNO 50 uM) was 7.7, the “BrdU (−) S” value ([8]; BNO 25 uM) was 1.30 and the G1 ([8]; BNO 25 uM) was 61.10. For the same molecule, the G2/M ([8]; BNO 25 uM) was 7.20, the S ([8]; BNO 25 uM) was 29.30 and the Sub-G1 ([8]; BNO 25 uM) was 1.10. For the same molecule, the “BrdU (−) S” value ([8]; BNO 50 uM) was 3.50, the G1 ([8]; BNO 50 uM) was 38.74 and the G2/M ([8]; BNO 50 uM) was 11.41. The S ([8]; BNO 50 uM) was 44.24 and the Sub-G1 ([8]; BNO 50 uM) was 2.10.
With `COc1cc([C@@H]2c3cc4c(cc3[C@H](O)[C@H]3COC(=O)[C@@H]23)OCO4)cc(OC)c1OC` [PPP, (5R,5aS,8aR,9R)-5,8,8a,9-Tetrahydro-9-hydroxy-5-(3,4,5-trimethoxyphenyl)-furo[3′,′: 6,7]naphtho[2,3-d]-1,3-dio xol-6(5aH)-one] the “effect of BA on antiproliferative effects of growth factor receptors inhibitors” value (HCC827 cells [2]) was “potentiation of antiproliferative effects”.

— patent US20120130144A1, “TREATMENT OF LUNG CANCER WITH A NITROBENZAMIDE COMPOUND IN COMBINATION WITH A GROWTH FACTOR INHIBITOR” (BiPar Sciences, Inc., priority 2009, published 2012)
